Experimental data: EP4759814A1, “TRICYCLIC COMPOUND AND USE THEREOF AS MAT2A INHIBITOR” (SK Biopharmaceuticals Co., Ltd., priority 2023, dated 2025)

Assays:
[1] = target: T1, MAT2A (Homo sapiens, UniProt P31153); assay: MAT2A inhibitory activity, colorimetric phosphate detection (PiColorLock) enzyme assay; assay type: biochemical; settings: Test Condition 1 or 2 (not stated which per compound); absorbance at 630 nm
T1 construct: purchased BPS Bioscience (USA) 71401
Outline: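 Compound preincubated 30 min at room temperature with enzyme, then reacted 1 h with ATP and Met; phosphate read colorimetrically at 630 nm. Condition 1: top 50 µM, 12 ng/µL enzyme, 100 µM ATP, 80 µM Met. Condition 2: top 1 µM, 4 ng/µL enzyme, 300 µM ATP, 150 µM Met. Tris pH 8.0 buffer; IC50 by 4-parameter fit.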

[2] = tested on: HCT116 (MTAP del) cell line; assay: Cell proliferation inhibition in MTAP-deficient cancer cells, WST-1 assay; assay type: cell-based; settings: Homo sapiens, HCT-116, 120 hours of drug treatment, maximum concentration 10 µM, read-out: HCT116 MTAP^-/- (IC50, cell proliferation inhibited by 50%)
Description: (§1) The HCT116 (MTAP del) cell line, which is a colorectal cancer cell line with deletion of MTAP gene, was treated with a compound according to an embodiment of the present application as a MAT2A inhibitor, and after culturing for 120 hours, the change in the number of cells was measured with a WST-1 assay reagent. The WST-1 assay is an assay that measures the number of cells by measuring the generation of a chromogenic substance called formazan from tetrazolium salts by intracellular mitochondrial dehydrogenase. In addition, as a control group, a wild-type colorectal cancer HCT116 (MTAP WT) cell line containing the MTAP gene was used to perform the experiment in the same manner as the experimental group.
(§2) Cell lines and reagents: HCT116 (MTAP WT (catalog number HD PAR-034), MTAP del (catalog number HD R02-033)) cell lines were purchased from Horizon Discovery (USA), and RPMI1640 medium (catalog number 22400-093), FBS (Fetal Bovine serum, catalog number 16000044), and Penicillin/Streptomycin (catalog number 15140-122) were purchased from GIBCO (USA). WST-1 (catalog number EZ-BULK150) was purchased from Dogen (Korea).
(§3) Experimental procedure: HCT116 (MTAP WT, MTAP del) cell lines were dispensed into a 96-well plate at a concentration of 1,000 cells/well in RPMI1640 culture medium containing 10% FBS and 1% Penicillin/Streptomycin, and allowed to attach for 24 hours. When the cells were attached to the plate, the drug was diluted 4-fold from a maximum concentration of 10 µM and treated on the cells. After 120 hours of drug treatment, 20 µL of WST-1 solution was treated for 2 hours, and absorbance at 450 nm was measured using SpectraMax M4 (Molecular Devices). Data analysis was calculated by taking the DMSO control group value as 100%. For the IC50 value, the concentration at which cell proliferation is inhibited by 50% was calculated through interpolation using a 4-parameter fit of the dose-response curve using the GraphPad Prism 8.4.3 program. The cancer cell proliferation inhibitory ability and selectivity in MTAP-deficient cancer cells of the compounds according to an embodiment of the present application are described in Table 3 (+++: 1 to 100 nM, ++: more than 100 to 1,000 nM, +: more than 1 to 10 µM, -: more than 10 µM).

[3] = tested on: HCT116 (MTAP WT) cell line; assay: Cell proliferation inhibition in wild-type control cells, WST-1 assay; assay type: cell-based; settings: Homo sapiens, HCT-116, 120 hours of drug treatment, maximum concentration 10 µM, read-out: HCT116 WT (IC50, cell proliferation inhibited by 50%)
Description: as §1, §2, §3

T1 sequence (P31153 whole entry): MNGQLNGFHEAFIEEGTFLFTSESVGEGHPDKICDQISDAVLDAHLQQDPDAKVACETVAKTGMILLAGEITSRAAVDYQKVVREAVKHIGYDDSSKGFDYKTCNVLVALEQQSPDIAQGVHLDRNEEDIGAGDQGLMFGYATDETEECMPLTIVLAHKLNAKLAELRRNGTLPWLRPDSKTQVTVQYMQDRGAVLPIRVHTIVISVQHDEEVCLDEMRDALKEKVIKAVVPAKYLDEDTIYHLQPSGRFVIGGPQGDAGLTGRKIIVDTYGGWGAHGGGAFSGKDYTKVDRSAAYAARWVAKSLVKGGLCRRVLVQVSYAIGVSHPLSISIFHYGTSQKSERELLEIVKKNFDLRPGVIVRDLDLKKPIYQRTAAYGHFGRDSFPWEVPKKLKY

Row | IC50 [1] [nM] | IC50 [2] [nM] | IC50 [3] [nM] | Compound
1 | 100 to 1000 | 100 to 1000 | > 10000 | Cc1ccccc1-n1c(=O)c2nccn2c2ccc(C(F)(F)F)nc21 [Example 49, 5-(o-tolyl)-7-(trifluoromethyl)imidazo[1,2-a]pyrido[2,3-e]pyrazin-4(5H)-one]
2 | 100 to 1000 | 1000 to 10000 | > 10000 | Cc1cccc(F)c1-n1c(=O)c2nccn2c2ccc(Cl)cc21 [Example 52, 7-chloro-5-(2-fluoro-6-methylphenyl)imidazo[1,2-a]quinoxalin-4(5H)-one]
3 | 1 to 100 | 1 to 100 | 100 to 1000 | O=c1c2nccn2c2ccc(Cl)cc2n1-c1cccnc1Cl [Example 54, 7-chloro-5-(2-chloropyridin-3-yl)imidazo[1,2-a]quinoxalin-4(5H)-one]
4 | 1 to 100 | 1 to 100 | 1000 to 10000 | Cc1cn2c(n1)c(=O)n(-c1cccnc1C)c1cc(C(F)(F)F)ccc12 [Example 55, 2-methyl-5-(2-methylpyridin-3-yl)-7-(trifluoromethyl)imidazo[1,2-a]quinoxalin-4(5H)-one]
5 | 100 to 1000 | 1 to 100 | 1000 to 10000 | Cc1ncccc1-n1c(=O)c2nccn2c2ccc(C(F)(F)F)cc21 [Example 56, 5-(2-methylpyridin-3-yl)-7-(trifluoromethyl)imidazo[1,2-a]quinoxalin-4(5H)-one]
6 | 100 to 1000 | 1 to 100 | 100 to 1000 | Cc1ncccc1-n1c(=O)c2ncc(Br)n2c2ccc(C(F)(F)F)cc21 [Example 57, 1-bromo-5-(2-methylpyridin-3-yl)-7-(trifluoromethyl)imidazo[1,2-a]quinoxalin-4(5H)-one]
7 | 100 to 1000 | 1 to 100 | 100 to 1000 | Cc1ncccc1-n1c(=O)c2ncc(C)n2c2ccc(C(F)(F)F)cc21 [Example 58, 1-methyl-5-(2-methylpyridin-3-yl)-7-(trifluoromethyl)imidazo[1,2-a]quinoxalin-4(5H)-one]
8 | 100 to 1000 | > 10000 | > 10000 | CC(=O)c1nc2c(=O)n(-c3cccnc3C)c3cc(C(F)(F)F)ccc3n2c1O [Example 60, 2-acetyl-1-hydroxy-5-(2-methylpyridin-3-yl)-7-(trifluoromethyl)imidazo[1,2-a]quinoxalin-4(5H)-one]
9 | 1 to 100 | 1 to 100 | 1000 to 10000 | O=c1c2nccn2c2ccc(C(F)(F)F)cc2n1-c1cccc2c1CCO2 [Example 65, 5-(2,3-dihydrobenzofuran-4-yl)-7-(trifluoromethyl)imidazo[1,2-a]quinoxalin-4(5H)-one]
10 | 1000 to 10000 | > 10000 | > 10000 | Cc1ccccc1-n1c(=O)c2nccn2c2c(F)cc(Cl)cc21 [Example 71, 7-chloro-9-fluoro-5-(o-tolyl)imidazo[1,2-a]quinoxalin-4(5H)-one]
11 | 100 to 1000 | 100 to 1000 | > 10000 | Cc1cc2c(cc1Cl)n(-c1ccccc1C)c(=O)c1nccn12 [Example 73, 7-chloro-8-methyl-5-(o-tolyl)imidazo[1,2-a]quinoxalin-4(5H)-one]
12 | 100 to 1000 | 100 to 1000 | > 10000 | COc1cc2c(cc1Br)n(-c1ccccc1C)c(=O)c1nccn12 [Example 74, 7-bromo-8-methoxy-5-(o-tolyl)imidazo[1,2-a]quinoxalin-4(5H)-one]
13 | 100 to 1000 | 100 to 1000 | > 10000 | COc1cc2c(cc1Br)n(-c1cccnc1C)c(=O)c1nccn12 [Example 75, 7-bromo-8-methoxy-5-(2-methylpyridin-3-yl)imidazo[1,2-a]quinoxalin-4(5H)-one]
14 | 1 to 100 | 1 to 100 | 1000 to 10000 | Cc1ncccc1-n1c(=O)c2nccn2c2cc(F)c(Br)cc21 [Example 77, 7-bromo-8-fluoro-5-(2-methylpyridin-3-yl)imidazo[1,2-a]quinoxalin-4(5H)-one]
15 | 1 to 100 | 1 to 100 | > 10000 | Cc1cc2c(cc1Br)n(-c1cccnc1C)c(=O)c1nccn12 [Example 78, 7-bromo-8-methyl-5-(2-methylpyridin-3-yl)imidazo[1,2-a]quinoxalin-4(5H)-one]
16 | 100 to 1000 | 1 to 100 | > 10000 | Cc1cc2c(cc1Br)n(-c1cccnc1C)c(=O)c1ncc(C)n12 [Example 84, 7-bromo-1,8-dimethyl-5-(2-methylpyridin-3-yl)imidazo[1,2-a]quinoxalin-4(5H)-one]
17 | 100 to 1000 | 1 to 100 | > 10000 | Cc1ncccc1-n1c(=O)c2ncc(C)n2c2c(Br)c(C)c(Br)cc21 [Example 85, 7,9-dibromo-1,8-dimethyl-5-(2-methylpyridin-3-yl)imidazo[1,2-a]quinoxalin-4(5H)-one]
18 | 100 to 1000 | 100 to 1000 | > 10000 | Cc1ncccc1-n1c(=O)c2ncc(C)n2c2cc(Cl)c(Br)cc21 [Example 86, 7-bromo-8-chloro-1-methyl-5-(2-methylpyridin-3-yl)imidazo[1,2-a]quinoxalin-4(5H)-one]
19 | 1 to 100 | 1 to 100 | > 10000 | O=c1c2nccn2c2cc(Cl)c(Br)cc2n1-c1cccnc1C1CC1 [Example 87, 7-bromo-8-chloro-5-(2-cyclopropylpyridin-3-yl)imidazo[1,2-a]quinoxalin-4(5H)-one]
20 | 100 to 1000 | 100 to 1000 | > 10000 | Cc1ncccc1-n1c(=O)c2ncc(Br)n2c2cc(Cl)c(Br)cc21 [Example 88, 1,7-dibromo-8-chloro-5-(2-methylpyridin-3-yl)imidazo[1,2-a]quinoxalin-4(5H)-one]
21 | 100 to 1000 | 100 to 1000 | > 10000 | Cc1ncccc1-n1c(=O)c2ncc(Cl)n2c2cc(Cl)c(Br)cc21 [Example 89, 7-bromo-1,8-dichloro-5-(2-methylpyridin-3-yl)imidazo[1,2-a]quinoxalin-4(5H)-one]
22 | 1 to 100 | 1 to 100 | > 10000 | Cc1cc2c(cc1Br)n(-c1cccnc1Cl)c(=O)c1nccn12 [Example 91, 7-bromo-5-(2-chloropyridin-3-yl)-8-methylimidazo[1,2-a]quinoxalin-4(5H)-one]
23 | 100 to 1000 | > 10000 | > 10000 | Cc1ncccc1-n1c(=O)c2nc(Br)c(C)n2c2cc(Cl)c(Br)cc21 [Example 92, 2,7-dibromo-8-chloro-1-methyl-5-(2-methylpyridin-3-yl)imidazo[1,2-a]quinoxalin-4(5H)-one]
24 | 1 to 100 | 1 to 100 | > 10000 | Cc1ncccc1-n1c(=O)c2ncc(C)n2c2cc(Cl)c(C(F)(F)F)cc21 [Example 99, 8-chloro-1-methyl-5-(2-methylpyridin-3-yl)-7-(trifluoromethyl)imidazo[1,2-a]quinoxalin-4(5H)-one]
25 | 100 to 1000 | 100 to 1000 | > 10000 | Cc1ncccc1-n1c(=O)c2nc(N(C)C)c(C)n2c2cc(Cl)c(C(F)(F)F)cc21 [Example 100, 8-chloro-2-(dimethylamino)-1-methyl-5-(2-methylpyridin-3-yl)-7-(trifluoromethyl)imidazo[1,2-a]quinoxalin-4(5H)-one]

Row | Compound | IC50 [1] [nM] | IC50 [2] [nM] | IC50 [3] [nM]
26 | Cc1ncccc1-n1c(=O)c2nccn2c2cc(Cl)c(Br)cc21 [Example 79, 7-bromo-8-chloro-5-(2-methylpyridin-3-yl)imidazo[1,2-a]quinoxalin-4(5H)-one] | 1 to 100 | 1 to 100 | 1000 to 10000
27 | Cc1cc2c(cc1C(F)(F)F)n(-c1cccnc1C)c(=O)c1nccn12 [Example 93, 8-methyl-5-(2-methylpyridin-3-yl)-7-(trifluoromethyl)imidazo[1,2-a]quinoxalin4(5H)-one] | 1 to 100 | 1 to 100 | > 10000
28 | Cc1ncccc1-n1c(=O)c2nccn2c2cc(Cl)c(C(F)(F)F)cc21 [Example 96, 8-chloro-5-(2-methylpyridin-3-yl)-7-(trifluoromethyl)imidazo[1,2-a]quinoxalin4(5H)-one] | 1 to 100 | 1 to 100 | > 10000
